Source: ChEMBL document CHEMBL1201862, “PubChem BioAssay data set” (2004)
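The compound was tested at five concentrations on cells cultured in 96-well plates, with a 48-hour exposure period. Here, GI50 denotes the concentration required for 50% inhibition of growth.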 Activity calls are given as the source filed them. No stated cut-off is given here; in the data, active = GI50 up to about 1.1 µM and inactive = higher.

Columns and labels:
Assay in all cases: inhibition of tumour cell growth, NCI panel, 48 h
SK-MEL-28 = test system: SK-MEL-28
LOX IMVI = test system: LOX IMVI
Hs-578T = test system: Hs-578T
MOLT-4 = test system: MOLT-4
NCI-H460 = test system: NCI-H460
EKVX = test system: EKVX
SK-OV-3 = test system: SK-OV-3
OVCAR-3 = test system: OVCAR-3
HCT-15 = test system: HCT-15
UO-31 = test system: UO-31
MDA-MB-435 = test system: MDA-MB-435
SF-295 = test system: SF-295
NCI/ADR-RES = test system: NCI/ADR-RES
SNB-19 = test system: SNB-19
IGROV-1 = test system: IGROV-1
OVCAR-8 = test system: OVCAR-8
SNB-75 = test system: SNB-75
RPMI-8226 = test system: RPMI-8226
HCC 2998 = test system: HCC 2998
T47D = test system: T47D
HT-29 = test system: HT-29
OVCAR-4 = test system: OVCAR-4
M14 = test system: M14
NCI-H23 = test system: NCI-H23
K562 = test system: K562
Malme-3M = test system: Malme-3M
DU-145 = test system: DU-145
MDA-N = test system: MDA-N
CCRF-CEM = test system: CCRF-CEM
OVCAR-5 = test system: OVCAR-5
786-0 = test system: 786-0
HOP-92 = test system: HOP-92
COLO 205 = test system: COLO 205
BT-549 = test system: BT-549
UACC-257 = test system: UACC-257
HOP-62 = test system: HOP-62
MDA-MB-231 = test system: MDA-MB-231
TK-10 = test system: TK-10
NCI-H522 = test system: NCI-H522
SW-620 = test system: SW-620
U-251 = test system: U-251
CAKI-1 = test system: CAKI-1
SF-268 = test system: SF-268
SK-MEL-5 = test system: SK-MEL-5
RXF 393 = test system: RXF 393
PC-3 = test system: PC-3
UACC-62 = test system: UACC-62
SR = test system: SR
SN12C = test system: SN12C
SF-539 = test system: SF-539
A549 = test system: A549
SK-MEL-2 = test system: SK-MEL-2
HL-60 = test system: HL-60
MCF7 = test system: MCF7
HCT-116 = test system: HCT-116
A498 = test system: A498
ACHN = test system: ACHN
KM12 = test system: KM12
NCI-H226 = test system: NCI-H226

Structure (SMILES): O=C(Nc1ccccc1)c1cc2c(cc1Cl)Sc1nccn1S2(=O)=O
- GI50 (SK-MEL-28): 18 µM (inactive)
- GI50 (LOX IMVI): 9.2 µM (inactive)
- GI50 (Hs-578T): 22.8 µM (inactive)
- GI50 (MOLT-4): 15.6 µM (inactive)
- GI50 (NCI-H460): 16.6 µM (inactive)
- GI50 (EKVX): 24.2 µM (inactive)
- GI50 (SK-OV-3): 76.4 µM (inactive)
- GI50 (OVCAR-3): 21.4 µM (inactive)
- GI50 (HCT-15): 19.1 µM
- GI50 (UO-31): 34 µM (inactive)
- GI50 (MDA-MB-435): 14.8 µM (inactive)
- GI50 (SF-295): 41.5 µM (inactive)
- GI50 (NCI/ADR-RES): 41.8 µM (inactive)
- GI50 (SNB-19): > 100 µM (inactive)
- GI50 (IGROV-1): 20.2 µM (inactive)
- GI50 (OVCAR-8): 58.2 µM (inactive)
- GI50 (SNB-75): 17.7 µM (inactive)
- GI50 (RPMI-8226): 19.8 µM (inactive)
- GI50 (HCC 2998): 18.5 µM (inactive)
- GI50 (T47D): 19.1 µM (inactive)
- GI50 (HT-29): 21.9 µM (inactive)
- GI50 (OVCAR-4): 31.8 µM (inactive)
- GI50 (M14): 16 µM (inactive)
- GI50 (NCI-H23): 18.4 µM (inactive)
- GI50 (K562): 28.2 µM (inactive)
- GI50 (Malme-3M): 30.1 µM (inactive)
- GI50 (DU-145): 18.9 µM (inactive)
- GI50 (MDA-N): 23.5 µM (inactive)
- GI50 (CCRF-CEM): 17.3 µM (inactive)
- GI50 (OVCAR-5): 27.2 µM (inactive)
- GI50 (786-0): 21.2 µM (inactive)
- GI50 (HOP-92): 2.58 µM (inactive)
- GI50 (COLO 205): 15.3 µM (inactive)
- GI50 (BT-549): 19.7 µM (inactive)
- GI50 (UACC-257): 18.7 µM (inactive)
- GI50 (HOP-62): 16 µM (inactive)
- GI50 (MDA-MB-231): 27 µM (inactive)
- GI50 (TK-10): 34.5 µM (inactive)
- GI50 (NCI-H522): 21 µM (inactive)
- GI50 (SW-620): 21.1 µM (inactive)
- GI50 (U-251): 25.5 µM (inactive)
- GI50 (CAKI-1): 0.266 µM (active)
- GI50 (SF-268): 25.2 µM (inactive)
- GI50 (SK-MEL-5): 12.9 µM (inactive)
- GI50 (RXF 393): 17.7 µM (inactive)
- GI50 (PC-3): 20.1 µM (inactive)
- GI50 (UACC-62): 17.6 µM (inactive)
- GI50 (SR): 14.8 µM (inactive)
- GI50 (SN12C): 46.1 µM (inactive)
- GI50 (SF-539): 23 µM (inactive)
- GI50 (A549): 36.4 µM (inactive)
- GI50 (SK-MEL-2): 28.6 µM (inactive)
- GI50 (HL-60): 15.8 µM (inactive)
- GI50 (MCF7): 12.6 µM (inactive)
- GI50 (HCT-116): 12.1 µM (inactive)
- GI50 (A498): 18.5 µM (inactive)
- GI50 (ACHN): 41.3 µM (inactive)
- GI50 (KM12): 18.6 µM (inactive)

Structure (SMILES): O=c1c(C(c2ccccn2)c2c(O)oc3cc(O)ccc3c2=O)c(O)oc2cc(O)ccc12
- GI50 (SK-MEL-28): > 100 µM (inactive)
- GI50 (LOX IMVI): > 100 µM (inactive)
- GI50 (Hs-578T): > 100 µM (inactive)
- GI50 (MOLT-4): > 100 µM (inactive)
- GI50 (NCI-H460): > 100 µM (inactive)
- GI50 (EKVX): > 100 µM (inactive)
- GI50 (SK-OV-3): > 100 µM (inactive)
- GI50 (OVCAR-3): > 100 µM (inactive)
- GI50 (HCT-15): > 100 µM
- GI50 (UO-31): > 100 µM (inactive)
- GI50 (MDA-MB-435): > 100 µM (inactive)
- GI50 (SF-295): > 100 µM (inactive)
- GI50 (NCI/ADR-RES): > 100 µM (inactive)
- GI50 (SNB-19): > 100 µM (inactive)
- GI50 (IGROV-1): > 100 µM (inactive)
- GI50 (OVCAR-8): 44.2 µM (inactive)
- GI50 (SNB-75): 66.2 µM (inactive)
- GI50 (RPMI-8226): > 100 µM (inactive)
- GI50 (HCC 2998): > 100 µM (inactive)
- GI50 (T47D): > 100 µM (inactive)
- GI50 (HT-29): > 100 µM (inactive)
- GI50 (M14): > 100 µM (inactive)
- GI50 (NCI-H23): > 100 µM (inactive)
- GI50 (K562): > 100 µM (inactive)
- GI50 (DU-145): > 100 µM (inactive)
- GI50 (MDA-N): > 100 µM (inactive)
- GI50 (CCRF-CEM): > 100 µM (inactive)
- GI50 (OVCAR-5): > 100 µM (inactive)
- GI50 (786-0): > 100 µM (inactive)
- GI50 (HOP-92): > 100 µM (inactive)
- GI50 (COLO 205): > 100 µM (inactive)
- GI50 (BT-549): > 100 µM (inactive)
- GI50 (UACC-257): > 100 µM (inactive)
- GI50 (HOP-62): > 100 µM (inactive)
- GI50 (MDA-MB-231): > 100 µM (inactive)
- GI50 (TK-10): > 100 µM (inactive)
- GI50 (NCI-H522): > 100 µM (inactive)
- GI50 (NCI-H226): > 100 µM (inactive)
- GI50 (SW-620): > 100 µM (inactive)
- GI50 (U-251): > 100 µM (inactive)
- GI50 (CAKI-1): > 100 µM (inactive)
- GI50 (SF-268): > 100 µM (inactive)
- GI50 (SK-MEL-5): > 100 µM (inactive)
- GI50 (RXF 393): > 100 µM (inactive)
- GI50 (PC-3): > 100 µM (inactive)
- GI50 (UACC-62): > 100 µM (inactive)
- GI50 (SR): > 100 µM (inactive)
- GI50 (SN12C): > 100 µM (inactive)
- GI50 (SF-539): > 100 µM (inactive)
- GI50 (A549): > 100 µM (inactive)
- GI50 (SK-MEL-2): > 100 µM (inactive)
- GI50 (MCF7): > 100 µM (inactive)
- GI50 (HCT-116): > 100 µM (inactive)
- GI50 (A498): > 100 µM (inactive)
- GI50 (ACHN): > 100 µM (inactive)
- GI50 (KM12): > 100 µM (inactive)
